In patent US4859658A, “Compound compositions with improved analgesic antipyretic and anti-inflammatory activity” (Ricerfarma S.R.L., priority 1987, dated 1989):
Like-named read-outs stand apart in the source and are kept apart here.

Key:
[1] = tested on: carrageenin-induced oedema; test: Anti-inflammatory effect, rat paw oedema test; assay type: in vivo; details: oral gavage
Experimental: I. TEST MATERIALS: Thioacetamol, Indomethacin (Indomet)
The test drugs, suspended in 1% methyl cellulose (MC),
were administered by oral gavage to groups of male rats
(6 rats/group). Controls were given MC only.
2. Three hours following the test drug administration,
0.1 ml carrageenin (1% in saline) was injected
sub-plantar into the right hind paw. Identically
saline-injected left hind paw served
3. Readings were taken on each paw 3 hours following
injection of the test drug. The volume of both
hind paws was measured with an Hg-displacement
Volumeter (Huge, Basile, Italy).
Evaluation of anti-inflammatory activity was based on
the difference in volume (ΔV) between
the right (carrageenin-induced oedema) and left
(saline-control) hind paws.
Data was calculated by ranking ΔV values obtained
in drug-treated and control rats and expressed
percent increase over control for normal

hepatic parenchyma = details: compared with parent paracetamol; cited from earlier work
[2] = in vivo, 500 mg/kg
Excerpt: It must be also pointed out that the combination of very low doses of each component is not toxic.

yeast-induced fever = test: Anti-pyretic effect (yeast-induced) test in rats; assay type: in vivo, rat; details: oral gavage
Experimental: Anti-pyretic effect of Combination of Thiocetamol with Aspirin
(yeast-induced) test in rats
I. TEST MATERIALS: Thioacetamol, Aspirin
1. Fever in test animals was induced by subcutaneous
injection of yeast (10% in saline). Basal
rectal temperature (BRT) was determined in all
test animals with the aid of a YSI thermistor probe
2. Four hours after the yeast injection a test drug
suspended in 1% methyl cellulose (MC), was
administered by oral gavage to groups of
male rats (8 rats/group). Controls were
3. Measurements of rectal temperatures (ERT) in
response to the various treatments, were
carried out at 1, 3 and 5 hours after
the test drug administration.
Evaluation of anti-pyretic activity was based on the
temperature difference (Δt) between BRT and ERT at
each of the three respective test periods
for each treatment group.
Data was calculated by ranking Δt values obtained in
test drug-treated and control rats and expressed

[3] = cited from earlier work; for LD50: in vivo
[4] = cited from earlier work; for ED50: each compound alone, as reported by Maruyama Y. et al
[5] = single oral dose, cited from earlier work

Question: For `CC(=O)Nc1ccc(OC(=O)c2cccs2)cc1` [Thiocetamol, p-acetamidophenyl thiophene-2-carboxylate], which “ΔV (percent over control)” value ([1]; 150 mg/kg) is on record?
Answer: 90%

Question: And the “ΔV (percent over control)” value ([1]; 300 mg/kg)?
Answer: 70%

Question: And the “ΔV (percent over control)” value ([1]; 600 mg/kg)?
Answer: 62%

Question: And the “toxicity towards the hepatic parenchyma” value (hepatic parenchyma)?
Answer: remarkable lower toxicity towards the hepatic parenchyma

Question: What about the toxic effects [2] of the same molecule?
Answer: without any toxic effects

Question: And the “Δt at 1 hour” value (yeast-induced fever; 75 mg/kg)?
Answer: 86%

Question: What about the “Δt at 3 hour” value (yeast-induced fever; 75 mg/kg) of the same molecule?
Answer: 91%

Question: And the “Δt at 5 hour” value (yeast-induced fever; 75 mg/kg)?
Answer: 91%

Question: And the “Δt at 1 hour” value (yeast-induced fever; 150 mg/kg)?
Answer: 47%

Question: And the “Δt at 3 hour” value (yeast-induced fever; 150 mg/kg)?
Answer: 96%

Question: What about the “Δt at 5 hour” value (yeast-induced fever; 150 mg/kg) of the same molecule?
Answer: 84%

Question: What about the “Δt at 1 hour” value (yeast-induced fever; 300 mg/kg) of the same molecule?
Answer: 26%

Question: What about the “Δt at 3 hour” value (yeast-induced fever; 300 mg/kg) of the same molecule?
Answer: 40%

Question: And the “Δt at 5 hour” value (yeast-induced fever; 300 mg/kg)?
Answer: 61%

Question: And the “acute median lethal dose (LD50)” value ([3]; compared with parent paracetamol, in words)?
Answer: far lower than that of the parent paracetamol

Question: What about the LD50 [3] of the same molecule?
Answer: around 2000 mg/kg

Question: Which “ΔV (percent over control)” value ([1]; 1 mg/kg) does the source give for `COc1ccc2c(c1)c(CC(=O)O)c(C)n2C(=O)c1ccc(Cl)cc1` [Indomethacin] here?
Answer: 85%

Question: And the “ΔV (percent over control)” value ([1]; 2 mg/kg)?
Answer: 63%

Question: And the “ΔV (percent over control)” value ([1]; 4 mg/kg)?
Answer: 58%

Question: And the “anti-inflammatory dose (ED50)” value ([4]; as reported)?
Answer: 3.5 mg/kg

Question: What about the ED50 [4] of the same molecule?
Answer: 3.6 mg/kg

Question: And the Gastric lesions ([5]; 3 mg/kg)?
Answer: 0%

Question: And the Intestinal lesions ([5]; 3 mg/kg)?
Answer: 0%

Question: What about the Gastric lesions ([5]; 10 mg/kg) of the same molecule?
Answer: 100%

Question: What about the Intestinal lesions ([5]; 10 mg/kg) of the same molecule?
Answer: 30%

Question: And the LD50 [3]?
Answer: 15.2 mg/kg

Question: With `O=C(O)Cc1ccccc1Nc1c(Cl)cccc1Cl` [Diclofenac] as the molecule, how does the ED50 [4] read?
Answer: 5 mg/kg

Question: Which ED50 [4] does the source give for `CC(C)Cc1ccc(C(C)C(=O)O)cc1` (stereo not drawn) [Ibuprofen] here?
Answer: 60 mg/kg

Question: For `CC(=O)Oc1ccccc1C(=O)O` [Aspirin], which ED50 [4] is on record?
Answer: 500 mg/kg

Question: What about the Gastric lesions ([5]; 100 mg/kg) of the same molecule?
Answer: 0%

Question: And the Intestinal lesions ([5]; 100 mg/kg)?
Answer: 0%

Question: What about the Gastric lesions ([5]; 300 mg/kg) of the same molecule?
Answer: 60%

Question: And the Intestinal lesions ([5]; 300 mg/kg)?
Answer: 10%

Question: And the Gastric lesions ([5]; 600 mg/kg)?
Answer: 100%

Question: And the Intestinal lesions ([5]; 600 mg/kg)?
Answer: 10%

Question: And the “Δt at 1 hour” value (yeast-induced fever; 50 mg/kg)?
Answer: 86%

Question: And the “Δt at 3 hour” value (yeast-induced fever; 50 mg/kg)?
Answer: 83%

Question: What about the “Δt at 5 hour” value (yeast-induced fever; 50 mg/kg) of the same molecule?
Answer: 67%

Question: What about the “Δt at 1 hour” value (yeast-induced fever; 100 mg/kg) of the same molecule?
Answer: 67%

Question: And the “Δt at 3 hour” value (yeast-induced fever; 100 mg/kg)?
Answer: 55%

Question: And the “Δt at 5 hour” value (yeast-induced fever; 100 mg/kg)?
Answer: 56%

Question: What about the “Δt at 1 hour” value (yeast-induced fever; 200 mg/kg) of the same molecule?
Answer: 49%

Question: What about the “Δt at 3 hour” value (yeast-induced fever; 200 mg/kg) of the same molecule?
Answer: 29%

Question: What about the “Δt at 5 hour” value (yeast-induced fever; 200 mg/kg) of the same molecule?
Answer: 19%

Question: And the LD50 [3]?
Answer: 1000 mg/kg
